The values below come from patent publication US11827616B2, “Heterocyclic compounds as pesticides” (Discovery Purchaser Corporation, priority 2018, dated 2023).

Holding throughout (assay type): in vivo
In one test the test system is Tetranychus urticae. In words: Tetranychus urticae spray test, OP-resistant. To be noted: application rate 500 g/ha; after 6 days. The protocol: Tetranychus urticae—Spray Test, OP-Resistant
Solvent: 78.0 Parts by Weight of Acetone • • 1.5 parts by weight of dimethylformamide
(§1) Emulsifier: alkylaryl polyglycol ether
(§2) To produce a suitable active compound formulation, 1 part by weight of active compound is dissolved with the specified parts by weight of solvent and made up to the desired concentration with water containing an emulsifier concentration of 1000 ppm. To produce further test concentrations, the formulation is diluted with emulsifier-containing water.
Discs of bean leaves (Phaseolus vulgaris) infested with all stages of the greenhouse red spider mite (Tetranychus urticae) are sprayed with an active compound formulation of the desired concentration.
After 6 days, the efficacy in % is determined. 100% means that all the spider mites have been killed; 0% means that no spider mites have been killed.

The test system of the next test is Spodoptera frugiperda. The test can be described thus: Spodoptera frugiperda spray test. As to conditions: for pest or weed control at 500 g/ha: Spodoptera frugiperda, 168 h, read-out: efficacy. The protocol: Spodoptera frugiperda—Spray Test
(§3) Solvent: 78.0 parts by weight of acetone • • 1.5 parts by weight of dimethylformamide
as §1, §2
Leaf discs of maize (Zea mays) are sprayed with an active compound formulation of the desired concentration and, after drying, populated with caterpillars of the fall armyworm (Spodoptera frugiperda).
After 7 days, the efficacy in % is determined. 100% means that all the caterpillars have been killed; 0% means that no caterpillar has been killed.

A further test deals with Phaedon cochleariae. The test can be described thus: Phaedon cochleariae spray test. To be noted: for pest or weed control at 500 g/ha: Phaedon cochleariae, 168 h, read-out: efficacy. The protocol: Phaedon cochleariae—Spray Test
as §3, §1, §2
Discs of Chinese cabbage leaves (Brassica pekinensis) are sprayed with an active compound formulation of the desired concentration and, after drying, populated with larvae of the mustard beetle (Phaedon cochleariae).
After 7 days, the efficacy in % is determined. 100% means that all the beetle larvae have been killed; 0% means that no beetle larvae have been killed.

The next test relates to Ctenocephalides felis. The test can be described thus: Ctenocephalides felis in vitro contact test with adult cat fleas. To be noted: application rate 5 μg/cm^2 (=500 g/ha); after 48 h. The protocol:
Ctenocephalides felis—In Vitro Contact Tests with Adult Cat Fleas
(§4) For the coating of the test tubes, 9 mg of active compound are first dissolved in 1 ml of acetone p.a. and then diluted to the desired concentration with acetone p.a. 250 μl of the solution are distributed homogeneously on the inner walls and the base of a 25 ml glass tube by turning and rocking on an orbital shaker (rocking rotation at 30 rpm for 2 h). With 900 ppm of active compound solution and internal surface area 44.7 cm^2, given homogeneous distribution, an area-based dose of 5 μg/cm^2 is achieved.
After the solvent has evaporated off, the tubes are populated with 5-10 adult cat fleas (Ctenocephalides felis), sealed with a perforated plastic lid and incubated in a horizontal position at room temperature and ambient humidity. After 48 h, efficacy is determined. To this end, the tubes are stood upright and the fleas are knocked to the base of the tube. Fleas which remain motionless at the base or move in an uncoordinated manner are considered to be dead or moribund.
100% efficacy means that all the fleas were dead or moribund. 0% efficacy means that no fleas were harmed.

A further test relates to Boophilus microplus. The test can be described thus: Boophilus microplus injection test. As to conditions: for efficacy (laying of fertile eggs): application rate 20 μg/animal, after 7 days. The protocol:
Boophilus microplus—Injection Test
(§5) Solvent: dimethyl sulfoxide
To produce a suitable active compound formulation, 10 mg of active compound are mixed with 0.5 ml of solvent and the concentrate is diluted to the desired concentration with solvent.
1 μl of the active compound solution is injected into the abdomen of 5 engorged adult female cattle ticks (Boophilus microplus). The animals are transferred into dishes and kept in a climate-controlled room.
Efficacy is assessed after 7 days by laying of fertile eggs. Eggs which are not visibly fertile are stored in a climate-controlled cabinet until the larvae hatch after about 42 days. An efficacy of 100% means that none of the ticks has laid any fertile eggs; 0% means that all the eggs are fertile.

For a further test, the system named is Rhipicephalus sanguineus. In words: Rhipicephalus sanguineus in vitro contact test with adult brown dog ticks. To be noted: application rate 5 μg/cm^2 (=500 g/ha); after 48 h. The protocol: Rhipicephalus sanguineus—In Vitro Contact Tests with Adult Brown Dog Ticks
as §4
After the solvent has evaporated off, the tubes are populated with 5-10 adult dog ticks (Rhipicephalus sanguineus), sealed with a perforated plastic lid and incubated in a horizontal position in the dark at room temperature and ambient humidity. After 48 h, efficacy is determined. To this end, the ticks are knocked to the base of the tube and incubated on a hotplate at 45-50° C. for not more than 5 min. Ticks which remain motionless on the base or move in such an uncoordinated manner that they are unable to deliberately avoid the heat by climbing upwards are considered to be dead or moribund.
An efficacy of 100% means that all the ticks were dead or moribund. 0% efficacy means that none of the ticks were harmed.

The next test deals with Lucilia cuprina. The test can be described thus: Lucilia cuprina test. To be noted: application rate 100 ppm; L1 larvae; after 2 days. The protocol: as §5
To produce a suitable active compound formulation, 10 mg of active compound are mixed with 0.5 ml of dimethyl sulfoxide, and the concentrate is diluted with water to the desired concentration.
About 20 L1 larvae of the Australian sheep blowfly (Lucilia cuprina) are transferred into a test vessel containing minced horsemeat and the active compound formulation of the desired concentration.
After 2 days, the kill in % is determined. 100% means that all the larvae have been killed; 0% means that no larvae have been killed.

Where [1] appears, read: application rate 500 g/ha, after 7 days.

The structures appear in SMILES notation. Where two headings read alike, the source gives them in different places.

As for `CON(C)CCOc1ncc(COc2ccc(Cl)c3ccccc23)cc1Cl` [Example 7], in the test on Tetranychus urticae, the efficacy came to 100%.
`CON(C)CCOc1ccc(COc2ccc3oc4ccccc4c3c2)cn1` [Example 8]: the efficacy in the test on Spodoptera frugiperda (setting [1]) and in the test on Phaedon cochleariae (setting [1]) was 100% each time.
For `CCN(CC)CCOc1ccc(COc2cccc3c(Cl)c(Cl)ccc23)cn1` [Example 9], the efficacy is given as 100% in the test on Spodoptera frugiperda (setting [1]) and 83% with Phaedon cochleariae (setting [1]). The “efficacy (fleas dead or moribund)” value with Ctenocephalides felis was determined as 100%. The “efficacy (laying of fertile eggs)” value in the test with Boophilus microplus is 90%. The “efficacy (ticks dead or moribund)” value in the test with Rhipicephalus sanguineus amounted to 100%.
In the test on Spodoptera frugiperda (setting [1]), `CON(C)CCOc1ccc(COc2cccc3c(Cl)c(Cl)ccc23)nc1Cl` [Example 18] had an efficacy of 100%. For the same compound, the “efficacy (laying of fertile eggs)” value in the test on Boophilus microplus amounted to 100%.
As to `CON(C)CCOc1cnc(COc2cccc3c(F)cccc23)c(F)c1` [Example 24], the efficacy with Spodoptera frugiperda (setting [1]) is reported as 83%. In the test on Ctenocephalides felis, the “efficacy (fleas dead or moribund)” value was 100%. In addition, in the test with Boophilus microplus, the “efficacy (laying of fertile eggs)” value was found to be 100%. Further, the “efficacy (ticks dead or moribund)” value with Rhipicephalus sanguineus was 100%.
As for `CON(C)CCOc1cnc(COc2ccc(Cl)c3ccccc23)c(Cl)c1` [Example 25], the efficacy with Spodoptera frugiperda (setting [1]) is recorded as 100%. Further, the “efficacy (laying of fertile eggs)” value with Boophilus microplus worked out at 100%.
On to `CN(CC#N)CCOc1cnc(COc2cccc3c(Cl)c(Cl)ccc23)c(F)c1` [Example 28], for which, in the test with Lucilia cuprina, the “efficacy (kill in %)” value stood at 100%. Moreover, the “efficacy (laying of fertile eggs)” value in the test with Boophilus microplus worked out at 100%. In addition, the “efficacy (ticks dead or moribund)” value with Rhipicephalus sanguineus amounted to 100%.
On to `CON(C)CCOc1ccc(COc2ccc3oc4ccccc4c3c2)nc1` [Example 31], for which the efficacy with Spodoptera frugiperda (setting [1]) and in the test on Phaedon cochleariae (setting [1]) was 100% in each case. For the same compound, the “efficacy (kill in %)” value with Lucilia cuprina was 100%. In addition, the “efficacy (laying of fertile eggs)” value in the test on Boophilus microplus worked out at 100%. In the test with Rhipicephalus sanguineus, the “efficacy (ticks dead or moribund)” value amounted to 100%.
Regarding `CCN(CC)CCOc1ccc(COc2cccc3c(Cl)c(Cl)ccc23)nc1` [Example 33], the efficacy with Spodoptera frugiperda (setting [1]) and with Phaedon cochleariae (setting [1]) was 100% each time. In addition, the “efficacy (laying of fertile eggs)” value in the test with Boophilus microplus stood at 80%.
For the compound `CN(CCOc1cnc(COc2ccc3oc4ccccc4c3c2)c(F)c1)C(C)(C)C.Cl` [Example 35], in the test with Phaedon cochleariae (setting [1]), the efficacy is recorded as 83%.
On to `CN(CCOc1cnc(COc2cccc3c(Cl)c(Cl)ccc23)c(F)c1)C(C)(C)C` [Example 36, N-{2-[(6-{[(5,6-dichloro-1-naphthyl)oxy]methyl}-5-fluoropyridin-3-yl)oxy]ethyl}-N,2-dimethylpropan-2-amine], for which the pest or weed control at 500 g/ha with Spodoptera frugiperda and in the test on Phaedon cochleariae was 100% in each case. In the test with Boophilus microplus (Rhipicephalus microplus, 168 h, read-out: efficacy (laying of fertile eggs), application rate 20 μg/animal, after 7 days), the pest or weed control at 0.02 mg was found to be 100%.
Regarding `CN(CCOc1cnc(COc2cccc3c(Cl)c(Cl)ccc23)c(F)c1)C(C)(C)C` [Example 37, N-{2-[(6-{[(5,6-dichloro-1-naphthyl)oxy]methyl}-5-fluoropyridin-3-yl)oxy]ethyl}-N,2-dimethylpropan-2-aminium chloride], the efficacy with Spodoptera frugiperda (setting [1]) and in the test with Phaedon cochleariae (setting [1]) was 100% each time. In addition, the “efficacy (fleas dead or moribund)” value in the test on Ctenocephalides felis stood at 100%. The “efficacy (laying of fertile eggs)” value in the test with Boophilus microplus is listed as 80%.
As to `CC(C)(C)NCCOc1cnc(COc2cccc3c(Cl)c(Cl)ccc23)c(F)c1` [Example 38], the efficacy in the test on Spodoptera frugiperda (setting [1]) and with Phaedon cochleariae (setting [1]) was 100% in each case. In addition, the “efficacy (kill in %)” value in the test with Lucilia cuprina came out at 80%. For the same compound, the “efficacy (laying of fertile eggs)” value in the test on Boophilus microplus is listed as 100%.
Turning to `CC(C)N(CCOc1cnc(COc2ccc3oc4ccccc4c3c2)c(F)c1)C(C)C` [Example 40], the efficacy in the test with Phaedon cochleariae (setting [1]) is recorded as 100%.
As to `Fc1cc(OCCN2CCCCC2)cnc1COc1ccc2oc3ccccc3c2c1` [Example 41], in the test on Tetranychus urticae, the efficacy is recorded as 90%.
`Fc1cc(OCCN2CCCCC2)cnc1COc1cccc2c(Cl)c(Cl)ccc12` [Example 42] gave an efficacy with Spodoptera frugiperda (setting [1]) of 100%.
The compound `CC(C)N(C)CCOc1cnc(COc2ccc3oc4ccccc4c3c2)c(F)c1` [Example 43] came in with an efficacy in the test with Phaedon cochleariae (setting [1]) of 100%.
On to `CCN1CCN(c2cnc(COc3cccc4c(Cl)c(Cl)ccc34)c(F)c2)CC1` [Example 45], for which the efficacy with Spodoptera frugiperda (setting [1]) and in the test on Phaedon cochleariae (setting [1]) was 100% throughout.
`CCN1CCN(c2cnc(COc3ccc4oc5ccccc5c4c3)c(F)c2)CC1` [Example 46] had an efficacy in the test with Spodoptera frugiperda (setting [1]) of 83%.
Regarding `CON(C)CCOc1ccc(COc2cccc3c(Cl)c(Cl)ccc23)nc1SC` [Example 52, 2-{[6-{[(5,6-dichloro-1-naphthyl)oxy]methyl}-2-(methylsulfanyl)pyridin-3-yl]oxy}-N-methoxy-N-methylethanamine], the pest or weed control at 500 g/ha in the test with Spodoptera frugiperda (setting [1]) and in the test with Phaedon cochleariae (setting [1]) was 100% each time.
Regarding `CN(CCOc1cnc(COc2cccc(-c3cccc(OC(F)(F)F)c3)c2)c(F)c1)C(C)(C)C` [Example 66], the efficacy in the test on Spodoptera frugiperda (setting [1]) and in the test with Phaedon cochleariae (setting [1]) was 100% throughout.
Take `CON(C)CCOc1ccc(COc2ccc(Cl)c(OC(F)(F)F)c2)nc1` [Example 73]: the efficacy in the test on Tetranychus urticae is 100%. Further, the “efficacy (laying of fertile eggs)” value with Boophilus microplus is given as 80%.
In the case of `CN(CCOc1cnc(COc2ccc(F)c(-c3cccc(OC(F)(F)F)c3)c2)c(F)c1)C(C)(C)C.Cl` [Example 77], the efficacy in the test on Spodoptera frugiperda (setting [1]) was 100%; in the test on Phaedon cochleariae (setting [1]) it was 83%. For the same compound, the “efficacy (kill in %)” value in the test on Lucilia cuprina stood at 90%.
In the test with Phaedon cochleariae (setting [1]), `CC(C)N(CCOc1cnc(COc2ccc(Cl)c(OC(F)(F)F)c2)c(F)c1)C(C)C` [Example 79] displayed an efficacy of 100%.
Consider `CON(C)CCOc1cnc(COc2cccc(-c3cccc(Cl)c3)c2)c(F)c1` [Example 80], for which the efficacy is 83% in the test on Spodoptera frugiperda (setting [1]) and 100% in the test with Phaedon cochleariae (setting [1]). The “efficacy (kill in %)” value in the test on Lucilia cuprina was determined as 100%. Moreover, the “efficacy (laying of fertile eggs)” value with Boophilus microplus turned out to be 100%. Further, the “efficacy (ticks dead or moribund)” value in the test with Rhipicephalus sanguineus is 100%.
In the case of `CON(C)CCOc1cnc(COc2ccc(F)c(Br)c2)c(F)c1` [Example 83], in the test on Tetranychus urticae, the efficacy is 100%. For the same compound, the “efficacy (laying of fertile eggs)” value in the test on Boophilus microplus was found to be 80%.
The compound `CON(C)CCOc1cnc(COc2cccc(-c3cccc(F)c3)c2)c(F)c1` [Example 85] gave an efficacy in the test on Spodoptera frugiperda (setting [1]) of 83%.
The compound `COc1cc(OCCN(C)OC)cnc1COc1ccc(Cl)c2ccccc12` [Example 91] displayed an efficacy with Phaedon cochleariae (setting [1]) of 83%. Besides, in the test with Lucilia cuprina, the “efficacy (kill in %)” value was determined as 80%. Moreover, in the test on Boophilus microplus, the “efficacy (laying of fertile eggs)” value is on record as 100%.
On to `COc1cc(OCCN(C)OC)cnc1COc1cccc2c(Cl)c(Cl)ccc12` [Example 93], for which the “efficacy (kill in %)” value in the test with Lucilia cuprina is on record as 100%. Further, in the test with Boophilus microplus, the “efficacy (laying of fertile eggs)” value worked out at 100%.
As for `COc1cc(OCCN(C)OC)cnc1COc1cccc(-c2ccccc2)c1` [Example 94], in the test on Boophilus microplus, the “efficacy (laying of fertile eggs)” value is listed as 80%.
Consider `CON(C)CCOc1ncc(COc2ccc(Cl)c3ccccc23)cn1` [Example 98], for which the efficacy in the test with Phaedon cochleariae (setting [1]) worked out at 100%.
